The values below come from patent publication US20250134877A1, “METHODS OF TREATING CANCER DEPENDENT ON MYC GENE EXPRESSSION” (KARTOS THERAPEUTICS, priority 2021, published 2025).

For assay [1], the system named is other members of the CD28 family. The note with it: selectivity; cited from earlier work.
Assay [2] concerns p21 gene expression. Briefly: Gene expression analysis of PBMC samples from relapsed/refractory myelofibrosis patients: p21. The assay is classed as in vivo, human. Particulars: R/R myelofibrosis patients, 120 mg or 240 mg for 7 days or 240 mg for 5 days, C1D1 pre-dose vs C1D5, C1D6/8, FIG. 1. The text has this: (§1) FIG. 1 illustrates that the compound of Formula (I) induces p21 and represses Myc in relapsed/refractory myelofibrosis (R/R MF) patients. PBMC samples from the patients were used for the gene expression analyses. fdr.q refers to false discovery rate adjusted significance value for change in normalized gene expression. C1D1 refers to Cycle 1, Day 1. C1D5 refers to Cycle 1, Day 5. C1D6/8 refers to Cycle 1, Day 6 or 8.
(§2) Effects of the compound of Formula (I) were investigated on the gene expression of p21 and Myc in the patients of relapsed/refractory myelofibrosis. In the study, The compound of Formula (I) is administered at 120 mg for 7 days for Cohort 1, 240 mg for 7 days for Cohort 2, 240 mg for 7 days for Cohort 3, and 240 mg for 5 days for Cohort 4.
(§3) The peripheral blood mononuclear cell (PBMC) samples were taken from the patients pre-dosing on day 1 of cycle 1, day 5 of cycle 1, day 6 of cycle 1, and day 8 of cycle 1.

In assay [3] the test system is Myc gene expression. Nature of the assay: Gene expression analysis of PBMC samples from relapsed/refractory myelofibrosis patients: Myc. The format is in vivo, human. Particulars: R/R myelofibrosis patients, 120 mg or 240 mg for 7 days or 240 mg for 5 days, C1D1 pre-dose vs C1D5, C1D6/8, FIG. 1.
Excerpt: as §1, §2, §3

The subject of assay [4] is p21 gene expression. Nature of the assay: Gene expression analysis of PBMC samples from relapsed/refractory AML patients: p21. The format is in vivo, human. The note with it: R/R AML patients, 120, 180, 240 or 360 mg daily for seven days, C1D1 pre-dose vs C1D5, FIG. 2. On the procedure:
(§4) FIG. 2 illustrates that the compound of Formula (I) induces p21 and represses Myc in relapsed/refractory acute myeloid leukemia (AML) patients. PBMC samples from the patients were used for the gene expression analyses. C1D1 refers to Cycle 1 Day 1. C1D5 refers to Cycle 1 Day 5.
(§5) Effects of the compound of Formula (I) were investigated on the gene expression of p21 and Myc in the AML patients.
(§6) In dose-escalation phase study, the dosing of the compound of Formula (I) is 120 mg (three patients); 180 mg (2 patients), 240 mg (8 patients), and 360 mg (4 patients) daily for seven days, with different ‘off-treatment’ duration depending on cohort assignments. The peripheral blood mononuclear cell (PBMC) samples were taken from patients pre-dosing on day 1 of cycle 1, and day 5 of cycle 1.

For assay [5], the system named is Myc gene expression. Nature of the assay: Gene expression analysis of PBMC samples from relapsed/refractory AML patients: Myc. The assay is classed as in vivo, human. The note with it: R/R AML patients, 120, 180, 240 or 360 mg daily for seven days, C1D1 pre-dose vs C1D5, FIG. 2. On the procedure:
as §4, §5, §6

With “5C4: fully human IgG4 antibody blocking the PD-1 receptor; 5C4 in WO 2006/121168 and U.S. Pat. No. 8,008,449 [Formula 5C4]”, the “binding to other members of the CD28 family” value in assay [1] is “do not bind”.

In the case of `CC(C)[C@@H](CS(=O)(=O)C(C)C)N1C(=O)[C@@](C)(CC(=O)O)CC(c2cccc(Cl)c2)[C@H]1c1ccc(Cl)cc1` (stereo partly drawn) [Formula (I), 2-((3R,5R,6S)-5-(3-chlorophenyl)-6-(4-chlorophenyl)-1-((S)-1-(isopropylsulfony1)-3-methylbutan-2-y1)-3-methyl-2-oxopiperidin-3-yl) acetic acid], the “effect on p21 gene expression” value in the assay with p21 gene expression [2] and in the assay with p21 gene expression [4] was “induces” throughout. Moreover, the “effect on Myc gene expression” value in the assay on Myc gene expression [3] and in the assay with Myc gene expression [5] was “represses” each time.
